# Columns and labels:
# NCI-H838 cells = experiment: Anti proliferative activity in NCI-H838 cell line by Cell Titer Glo assay; format: cell-based; settings: Homo sapiens, 192 h, 8 days compound incubation, CellTiter Glo, read-out: Anti-proliferative activity IC50 group (NCI-H838 cells)
# Experimental: Determination of Anti Proliferative Activity of Compounds in NCI-H929 and NCI-H838 Cell Lines by Cell Titer Glo® (promega) assay:
# NCI-H929 (ATCC CRL-9068) or NCI-H838 (ATCC CRL-5844) cells were seeded in 96 well plate flat black clear bottom plates (Corning, Cat. No 3904) using complete RPMI-1640 media. Next day, compounds listed in the present invention were added to cells from 10 mM stocks made in DMSO (Sigma Cat no. D2650). Each concentration of compound was tested in triplicate with DMSO concentration at a final percentage not exceeding 0.3 in the cells. After the compound incubation (3 days for H929 and 8 days for H838) assay was terminated using 50 μl of CellTiter Glo® reagent (Promega, Cat. no G7572). CellTiter Glo® Luminescent reagent determines the number of viable cells based on quantitation of ATP present which is an indicator of cell number and metabolic activity. Luminescence readings were taken in Victor-3 instrument. Percent inhibition of proliferation was calculated using formula, % inhibition=100−(luminescence value of test/luminescence value of DMSO control)*100. DMSO control (0%)=Cells in complete media with DMSO; blank=Media alone containing DMSO. IC50 was calculated using graph pad prism software.
# Herein group “A” refers to IC50 value lower than 1 μM, “B” refers to IC50 value between 1-10 μM (both inclusive) and “C” refers to IC50 value higher than 10 μM or less than 50% activity at 10 μM.
# SMARCA4 = biological target: T1, SMARCA4 (Homo sapiens, UniProt P51532); experiment: SMARCA4 degradation in H929 cells by Western blot; format: cell-based; settings: 16 hours; for SMARCA4 percent degradation at 0.1 µM: NCI-H929, 100 nM
# T1 construct: endogenous in cells; host or cells: NCI-H929 (ATCC CRL-9068)
# Experimental: (§1) Determination of SMARCA2 and SMARCA4 Degradation in H929 Cells by Western Blot:
# (§2) NCI-H929 (ATCC CRL-9068) was plated in 6 well plates using complete RPMI-1640 media. Next day, compounds of present invention were added to cells from 10 mM stocks made in DMSO (Sigma Cat no. D2650). Each concentration of compound was tested with DMSO not exceeding final percentage of 0.3 in the cells. Cells were incubated with the compound for 16 hours followed by harvesting with 1× RIPA lysis buffer (Thermo Fischer, catalogue number #89900) containing protease inhibitor cocktail (Sigma catalogue number #P-8340). Equal amount of protein was loaded on SDS PAGE gel for electrophoresis. Western blot was carried out for detection of either SMARCA2 (Cell signaling technologies, catalogue number #11966) or SMARCA4 antibody (Cell signaling technologies, catalogue number #49360). Beta Actin (Santa Cruz, catalogue number #69879) was used as loading control. Percentage of SMARCA2 or SMARCA4 degradation was calculated using formula % Degradation=100−(normalized band intensity in treated sample/normalized band intensity in DMSO sample)*100.
# (§3) Selected compounds of the present invention were screened in the above mentioned assay procedures for determination of % SMARCA2 and SMARCA4 degradation 100 nM and the results are summarized in below table 30.
# SMARCA2 [1] = biological target: T2, SMARCA2 (Homo sapiens, UniProt P51531); experiment: SMARCA2 degradation in H929 cells by Western blot; format: cell-based; design: endogenous in cells; settings: 16 hours
# Experimental: as §1, §2, §3
# SMARCA2 [2] = biological target: T2, SMARCA2; experiment: SMARCA2 degradation in NCI-H838 cells by Western blot; format: cell-based; design: endogenous in cells; host or cells: NCI-H838 (ATCC CRL-5844); settings: 16 hours
# Experimental: Determination of SMARCA2 Degradation in NCI-1H838 Cells by Western Blot:
# NCI-1H838 (ATCC CRL-5844) was plated in 6 well plates using complete RPMI-1640 media. Next day, compounds of present invention were added to cells from 10 mM stocks made in DMSO (Sigma Cat no. D2650). Each concentration of compound was tested with DMSO concentration not exceeding a final percentage of 0.3 in the cells. Cells were incubated with the compound for 16 hours followed by harvesting with 1× RIPA lysis buffer (Thermo Fischer, catalogue number #89900) containing protease inhibitor cocktail (Sigma catalogue number #P-8340). Equal amount of protein was loaded on SIDS PAGE gel for electrophoresis. Western blot was carried out for detection of SMARCA2 with antibody (Cell signaling technologies, catalogue number #11966). Beta Actin (Santa Cruz, catalogue number #69879) was used as loading control. Percentage of SMARCA2 degradation was calculated using formula % degradation=100−(normalized band intensity in treated sample/normalized band intensity in DMSO sample)*100”.
# Selected compounds of the present invention were screened in the above mentioned assay procedures for determination of % SMARCA2 degradation at 100 nM and the results are summarized in below table 31.
# NCI-H929 cells = experiment: Anti proliferative activity in NCI-H929 cell line by Cell Titer Glo assay; format: cell-based; settings: Homo sapiens, 72 h, 3 days compound incubation, CellTiter Glo, read-out: Anti-proliferative activity IC50 group (NCI-H929 cells)
# Method in brief: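 Cells seeded in complete RPMI-1640 and exposed next day to compounds in triplicate (DMSO ≤0.3% final) for 3 days (H929) or 8 days (H838). Viability by CellTiter-Glo ATP luminescence; % inhibition relative to DMSO control, IC50 from dose-response fit.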
# [3] = system: SMARCA4-deficient cancer cell lines; settings: SMARCA2/4 bromodomain inhibitor; Cancer Res. 2015; cited from earlier work
# T1 sequence (P51532 whole entry): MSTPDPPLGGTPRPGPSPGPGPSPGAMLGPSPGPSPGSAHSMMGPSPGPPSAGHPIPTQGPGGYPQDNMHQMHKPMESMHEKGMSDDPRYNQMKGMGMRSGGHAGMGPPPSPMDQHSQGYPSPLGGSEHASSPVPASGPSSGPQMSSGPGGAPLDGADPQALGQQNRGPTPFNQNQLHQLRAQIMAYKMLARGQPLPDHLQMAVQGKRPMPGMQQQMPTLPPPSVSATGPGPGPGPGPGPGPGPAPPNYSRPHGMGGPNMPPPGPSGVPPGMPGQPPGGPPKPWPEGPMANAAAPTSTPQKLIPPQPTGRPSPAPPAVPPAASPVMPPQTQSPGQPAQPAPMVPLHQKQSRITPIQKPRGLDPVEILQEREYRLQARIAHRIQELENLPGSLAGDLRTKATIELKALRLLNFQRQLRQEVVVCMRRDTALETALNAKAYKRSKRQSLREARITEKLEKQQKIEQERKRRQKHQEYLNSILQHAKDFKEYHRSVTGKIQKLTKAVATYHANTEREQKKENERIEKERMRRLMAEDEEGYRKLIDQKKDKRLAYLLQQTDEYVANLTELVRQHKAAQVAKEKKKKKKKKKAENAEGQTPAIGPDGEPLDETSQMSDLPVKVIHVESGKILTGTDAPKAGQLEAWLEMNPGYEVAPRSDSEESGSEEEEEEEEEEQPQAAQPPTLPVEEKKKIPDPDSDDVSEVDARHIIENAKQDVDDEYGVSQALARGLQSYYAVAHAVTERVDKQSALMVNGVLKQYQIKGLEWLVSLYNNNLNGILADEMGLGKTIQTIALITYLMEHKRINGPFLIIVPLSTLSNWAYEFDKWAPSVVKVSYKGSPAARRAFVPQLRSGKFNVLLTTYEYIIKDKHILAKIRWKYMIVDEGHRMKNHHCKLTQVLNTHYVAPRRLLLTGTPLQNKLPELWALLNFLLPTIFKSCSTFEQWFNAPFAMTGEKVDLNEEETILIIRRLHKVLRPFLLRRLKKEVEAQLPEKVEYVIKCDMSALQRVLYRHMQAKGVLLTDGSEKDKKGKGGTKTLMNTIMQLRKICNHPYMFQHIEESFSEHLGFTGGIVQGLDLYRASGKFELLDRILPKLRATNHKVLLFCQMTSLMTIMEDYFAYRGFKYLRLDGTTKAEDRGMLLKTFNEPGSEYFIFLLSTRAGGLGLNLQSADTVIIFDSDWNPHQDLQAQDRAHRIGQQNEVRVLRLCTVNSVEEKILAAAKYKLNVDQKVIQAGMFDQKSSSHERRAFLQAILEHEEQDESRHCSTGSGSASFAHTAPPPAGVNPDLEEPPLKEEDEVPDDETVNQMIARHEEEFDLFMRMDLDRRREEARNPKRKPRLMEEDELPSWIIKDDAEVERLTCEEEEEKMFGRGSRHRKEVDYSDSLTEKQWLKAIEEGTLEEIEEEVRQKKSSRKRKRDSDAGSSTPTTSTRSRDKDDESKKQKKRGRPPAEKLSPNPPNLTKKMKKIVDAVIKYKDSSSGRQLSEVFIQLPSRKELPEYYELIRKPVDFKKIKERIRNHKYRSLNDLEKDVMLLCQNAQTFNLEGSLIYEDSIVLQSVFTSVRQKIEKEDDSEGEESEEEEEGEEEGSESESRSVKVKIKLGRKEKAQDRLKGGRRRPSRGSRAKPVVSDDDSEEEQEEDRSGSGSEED
# T2 sequence (P51531 whole entry): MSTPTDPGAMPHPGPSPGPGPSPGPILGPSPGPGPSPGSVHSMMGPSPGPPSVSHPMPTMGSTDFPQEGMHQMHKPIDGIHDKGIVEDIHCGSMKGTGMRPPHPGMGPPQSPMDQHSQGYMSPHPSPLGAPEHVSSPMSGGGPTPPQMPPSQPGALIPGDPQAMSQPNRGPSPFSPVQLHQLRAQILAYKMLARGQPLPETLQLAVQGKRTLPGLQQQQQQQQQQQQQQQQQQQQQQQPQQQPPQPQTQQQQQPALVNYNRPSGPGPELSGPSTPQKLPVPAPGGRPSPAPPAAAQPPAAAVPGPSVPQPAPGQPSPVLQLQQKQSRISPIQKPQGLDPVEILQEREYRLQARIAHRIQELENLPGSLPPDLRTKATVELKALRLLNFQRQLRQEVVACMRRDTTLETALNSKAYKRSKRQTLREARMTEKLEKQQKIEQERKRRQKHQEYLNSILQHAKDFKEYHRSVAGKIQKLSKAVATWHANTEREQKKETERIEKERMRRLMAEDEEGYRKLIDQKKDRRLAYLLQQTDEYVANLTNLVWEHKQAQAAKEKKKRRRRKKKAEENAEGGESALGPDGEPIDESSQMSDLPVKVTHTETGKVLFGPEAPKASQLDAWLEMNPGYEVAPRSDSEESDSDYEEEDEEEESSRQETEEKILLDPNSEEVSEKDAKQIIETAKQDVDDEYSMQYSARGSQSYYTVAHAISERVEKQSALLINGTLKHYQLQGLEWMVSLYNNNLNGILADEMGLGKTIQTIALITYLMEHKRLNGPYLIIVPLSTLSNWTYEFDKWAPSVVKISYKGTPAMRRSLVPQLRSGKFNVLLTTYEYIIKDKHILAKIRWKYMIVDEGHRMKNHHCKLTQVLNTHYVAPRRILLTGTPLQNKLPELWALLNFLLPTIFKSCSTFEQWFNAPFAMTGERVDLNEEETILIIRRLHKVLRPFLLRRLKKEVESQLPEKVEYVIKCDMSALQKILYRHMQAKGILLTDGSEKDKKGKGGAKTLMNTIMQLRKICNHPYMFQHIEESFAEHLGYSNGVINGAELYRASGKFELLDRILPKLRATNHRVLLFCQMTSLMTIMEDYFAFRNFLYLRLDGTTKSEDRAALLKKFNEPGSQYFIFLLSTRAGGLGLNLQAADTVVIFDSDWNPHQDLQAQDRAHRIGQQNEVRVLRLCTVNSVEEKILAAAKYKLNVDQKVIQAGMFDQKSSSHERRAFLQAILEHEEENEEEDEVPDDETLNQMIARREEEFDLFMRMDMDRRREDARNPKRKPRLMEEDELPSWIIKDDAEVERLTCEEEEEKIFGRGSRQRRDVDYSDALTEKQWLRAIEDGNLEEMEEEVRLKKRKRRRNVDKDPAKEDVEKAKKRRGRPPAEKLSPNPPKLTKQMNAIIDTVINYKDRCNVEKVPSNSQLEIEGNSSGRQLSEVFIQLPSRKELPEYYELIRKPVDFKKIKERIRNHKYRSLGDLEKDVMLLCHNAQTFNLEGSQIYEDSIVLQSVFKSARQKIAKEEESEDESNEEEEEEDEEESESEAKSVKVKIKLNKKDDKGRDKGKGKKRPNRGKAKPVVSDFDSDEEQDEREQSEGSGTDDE
IC50 (NCI-H838 cells) [nM],SMARCA4 percent degradation at 0.1 µM (SMARCA4) [%],SMARCA2 Percent degradation @ 100 nM (SMARCA2 [1]) [%],SMARCA2 @ 100 nM (% SMARCA2 degradation) (SMARCA2 [2]) [%],IC50 (NCI-H929 cells) [nM],SMARCA4 Percent degradation @ 100 nM (SMARCA4) [%],SMILES,antiproliferative phenotype [3]
< 1000,100,100,71,,,"Cc1ncsc1-c1ccc([C@H](C)NC(=O)[C@@H]2C[C@@H](O)CN2C(=O)[C@@H](NC(=O)C(C)N2CCN(c3cc(-c4ccccc4O)nnc3N)CC2)C(C)(C)C)cc1 (single isomer, unassigned) [Compound 58]",
< 1000,,100,7,,,"Cc1ncsc1-c1ccc([C@H](C)NC(=O)[C@@H]2C[C@@H](O)CN2C(=O)[C@@H](NC(=O)C(C)C2CCN(c3cc(-c4cccc(F)c4O)nnc3N)CC2)C(C)(C)C)cc1 (single isomer, unassigned) [Compound 83]",
< 1000,,100,97,< 1000,100,Cc1ncsc1-c1ccc([C@H](C)NC(=O)[C@@H]2C[C@@H](O)CN2C(=O)[C@@H](NC(=O)CN2CCN(c3cc(-c4ccccc4O)nnc3N)CC2)C(C)(C)C)cc1 [Compound 43],
< 1000,99,,99,< 1000,,"Cc1ncsc1-c1ccc([C@H](C)NC(=O)[C@@H]2C[C@@H](O)CN2C(=O)[C@@H](NC(=O)CC2CCN(c3cc(-c4ccccc4O)nnc3N)CC2)C(C)(C)C)cc1 [Compound 51, (2S,4R)-1-((S)-2-(2-(1-(3-amino-6-(2-hydroxyphenyl)pyridazin-4-yl)piperidin-4-yl)acetamido)-3,3-dimethylbutanoyl)-4-hydroxy-N—((S)-1-(4-(4-methylthiazol-5-yl)phenyl)ethyl)pyrrolidine-2-carboxamide]",
< 1000,,,,< 1000,,"Cc1ncsc1-c1ccc([C@H](C)NC(=O)[C@@H]2C[C@@H](O)CN2C(=O)[C@@H](NC(=O)CC2(O)CCN(c3cc(-c4ccccc4O)nnc3N)CC2)C(C)(C)C)cc1 [Compound 55, (2S,4R)-1-((S)-2-(2-(1-(3-amino-6-(2-hydroxyphenyl)pyridazin-4-yl)-4-hydroxypiperidin-4-yl)acetamido)-3,3-dimethylbutanoyl)-4-hydroxy-N—((S)-1-(4-(4-methylthiazol-5-yl)phenyl)ethyl)pyrrolidine-2-carboxamide]",
< 1000,,,94,,,"Cc1ncsc1-c1ccc([C@H](C)NC(=O)[C@@H]2C[C@@H](O)CN2C(=O)[C@@H](NC(=O)CN2CCN(c3cc(-c4cc(F)ccc4O)nnc3N)CC2)C(C)(C)C)cc1 [Compound 63, (2S,4R)-1-((S)-2-(2-(4-(3-amino-6-(5-fluoro-2-hydroxyphenyl)pyridazin-4-yl)piperazin-1-yl)acetamido)-3,3-dimethylbutanoyl)-4-hydroxy-N—((S)-1-(4-(4-methylthiazol-5-yl)phenyl)ethyl)pyrrolidine-2-carboxamide]",
< 1000,,,34,< 1000,,Cc1ncsc1-c1ccc([C@H](C)NC(=O)[C@@H]2C[C@@H](O)CN2C(=O)[C@@H](NC(=O)CN2CCC(c3cc(-c4ccccc4O)nnc3N)CC2)C(C)(C)C)cc1 [Compound 81],
< 1000,,,61,< 1000,,Cc1ncsc1-c1ccc([C@H](C)NC(=O)[C@@H]2C[C@@H](O)CN2C(=O)[C@@H](NC(=O)CN2CC=C(c3cc(-c4ccccc4O)nnc3N)CC2)C(C)(C)C)cc1 [Compound 82],
< 1000,101,100,85,< 1000,,Cc1ncsc1-c1ccc([C@H](C)NC(=O)[C@@H]2C[C@@H](O)CN2C(=O)[C@@H](NC(=O)CN2CCN(c3cc(-c4cccc(F)c4O)nnc3N)CC2)C(C)(C)C)cc1 [Compound 90],
< 1000,,,82,,,Cc1cccc(-c2cc(N3CCN(CC(=O)N[C@H](C(=O)N4C[C@H](O)C[C@H]4C(=O)N[C@@H](C)c4ccc(-c5scnc5C)cc4)C(C)(C)C)CC3)c(N)nn2)c1O [Compound 91],
< 1000,,,76,,,Cc1ncsc1-c1ccc([C@H](C)NC(=O)[C@@H]2C[C@@H](O)CN2C(=O)[C@@H](NC(=O)CN2CCN(c3cc(-c4c(O)ccc(F)c4F)nnc3N)CC2)C(C)(C)C)cc1 [Compound 96],
< 1000,100,99,75,< 1000,,Cc1ncsc1-c1ccc([C@H](C)NC(=O)[C@@H]2C[C@@H](O)CN2C(=O)[C@@H](NC(=O)CC2CCN(c3cc(-c4cc(F)ccc4O)nnc3N)CC2)C(C)(C)C)cc1 [Compound 99],
< 1000,,,64,,,Cc1ncsc1-c1ccc([C@H](C)NC(=O)[C@@H]2C[C@@H](O)CN2C(=O)[C@@H](NC(=O)C=C2CCN(c3cc(-c4ccccc4O)nnc3N)CC2)C(C)(C)C)cc1 [Compound 103],
,,,,,,O=C(/C=C/N1C[C@H]2C[C@@H]1CN2c1ccccn1)c1ccccc1O [PFI-3],fails to display an antiproliferative phenotype

SMILES,IC50 (NCI-H838 cells) [nM],SMARCA4 percent degradation at 0.1 µM (SMARCA4) [%],SMARCA2 Percent degradation @ 100 nM (SMARCA2 [1]) [%],SMARCA2 @ 100 nM (% SMARCA2 degradation) (SMARCA2 [2]) [%],IC50 (NCI-H929 cells) [nM],SMARCA4 Percent degradation @ 100 nM (SMARCA4) [%],antiproliferative phenotype [3]
"Cc1ncsc1-c1ccc([C@H](C)NC(=O)[C@@H]2C[C@@H](O)CN2C(=O)[C@@H](NC(=O)CN2C3CCC2CN(c2cc(-c4ccccc4O)nnc2N)C3)C(C)(C)C)cc1 [Compound 61, (2S,4R)-1-((2S)-2-(2-(3-(3-amino-6-(2-hydroxyphenyl)pyridazin-4-yl)-3,8-diazabicyclo[3.2.1]octan-8-yl)acetamido)-3,3-dimethylbutanoyl)-4-hydroxy-N—((S)-1-(4-(4-methylthiazol-5-yl)phenyl)ethyl)pyrrolidine-2-carboxamide]",< 1000,,,35,,,
